Measurements reported in patent US20230150924A1, “NOVEL COMPOUND HAVING CANCER METASTASIS INHIBITORY ACTIVITY, PREPARATION METHOD THEREFOR, AND PHARMACEUTICAL COMPOSITION FOR INHIBITING CANCER METASTASIS AND INVASION OR TREATING COLORECTAL CANCER, COMPRISING COMPOUND” (CELLGENTEK CO., LTD., priority 2019, published 2023).
Values joined by “and” are separate entries in the source; they are usually repeats but may differ in a detail not shown here. Equal values may be shown once.

What was measured:
KAI1 promoter = KAI1 promoter luciferase reporter assay in transfected Caco2 cells; format: cell-based, human; conditions: Homo sapiens, Caco-2, 16 h, 1 μM compound, 16 hours, transfected Caco2 cells, luciferase activity relative to DMSO control (=1); read-out: Relative KAI promoter activity
Method: Experiments were conducted to evaluate the metastasis-related promoter activity-increasing effects of the compounds according to the present invention. Specifically, the KAI1 promoter reporter vector was used. In this case, the pRL-TK vector, a vector expressing renilla luciferase, was used as an internal control indicating the transfection efficiency in each transfected well.
First, 24 hours before transfection, 2×10^6 human colon cancer cell line, Caco2) cells were cultured in 10 ml of DMEM containing 10% FBS and 1% penicillin/streptomycin on a 100-mm-diameter plate, and then transformed with 5 μg of a pRL-TK vector mixture containing a transfection reagent and the KAI1 promoter, and then cultured in a 5% CO2 incubator at 37° C. for 48 hours. Thereafter, the adherent cells were detached using trypsin and counted using a hemacytometer, and then 5×10^3 transfected Caco2 cells in 100 μl of DMEM containing 10% FBS and 1% penicillin/streptomycin were seeded into each well of a 96-well plate and cultured in a 5% CO2 incubator at 37° C. for 24 hours. Next, 1 μM of each of the 305 compounds prepared in Examples 1 to 305 was added to each well, and after 16 hours, 100 μl of a lysis buffer for analysis containing a luciferase substrate was added, and the cells were lysed with stirring for 20 minutes. After completion of lysis, the cells were measured for luciferase activity using a luciferase reporter assay system (Promega, USA). […] In addition, data were analyzed at a significance level of p<0.05 by one-way ANOVA (Tukey's HSD), and SPSS 17.0 (Chicago, USA) statistical program was used. In Table 14 to 20, PHA is the PHA-665752, and KIT is KITENIN.

[1] = test system: invasion of colorectal cancer cells; assay: In vivo relative invation (invasion; EV and KITENIN controls, no method described); conditions: relative to EV (=1); KIT = KITENIN

Compound | fold induction at 1 µM (KAI1 promoter) | In vivo relative invation [1]
CCCCN(CC)Cc1ccc(C(=O)NCC(=O)c2ccccc2)cc1 [Example 273, 4-((butyl(ethyl)amino)methyl)-N-(2-oxo-2-phenylethyl)benzamide] | 1.2 | 1.171
COc1cccc(C(=O)CNC(=O)c2cccc(CN3CCC(N4CCCCC4)CC3)c2)c1 [Example 283, 3-([1,4′-bipiperidin]-1′-ylmethyl)-N-(2-(3-methoxyphenyl)-2-oxoethyl)benzamide] | 1.33 | 1.235
CCCCN(CC)Cc1cccc(C(=O)NCC(=O)c2ccccc2)c1 [Example 249, 3-((butyl(ethyl)amino)methyl)-N-(2-oxo-2-phenylethyl)benzamide] | 1.35 | 1.113
COc1cccc(C(=O)CNS(=O)(=O)c2ccccc2)c1 [Example 129, N-(2-(3-methoxyphenyl)-2-oxoethyl)benzenesulfonamide] | 1.3 | 1.298
O=C(CNC(=O)C1CC1)c1ccc(Cl)cc1 [Example 56, N-(2-(4-chlorophenyl)-2-oxoethyl)cyclopropanecarboxamide] | 0.92 | 1.249
O=C(CNC(=O)c1ccc(-c2ccccc2)cc1)c1ccccc1 [Example 43, N-(2-oxo-2-phenylethyl)-[1,1′-biphenyl]-4-carboxamide] | 1.91 | 0.9774
O=C(CNS(=O)(=O)Cc1ccccc1)c1ccc(Cl)cc1 [Example 70, N-(2-(4-chlorophenyl)-2-oxoethyl)-1-phenylmethanesulfonamide] | 0.81 | 1.274
CCCCN(C)Cc1cccc(C(=O)NCC(=O)c2ccccc2)c1 [Example 246, 3-((butyl (methyl)amino)methyl)-N-(2-oxo-2-phenylethyl)benzamide] | 1.88 | 1.148
O=C(CNC(=O)c1cccc(CN2CCC(N3CCCCC3)CC2)c1)c1ccccc1 [Example 237, 3-([1,4′-bipiperidin]-1′-ylmethyl)-N-(2-oxo-2-phenylethyl)benzamide] | 1.56 | 1.114
O=C(CNC(=O)c1ccc(CN2CCN(c3ncccn3)CC2)cc1)c1ccccc1 [Example 258, N-(2-oxo-2-phenylethyl)-4-((4-(pyrimidin-2-yl)piperazin-1-yl)methyl)benzamide] | 2.31 | 1.223
O=C(CNC(=O)c1cccc(Cl)c1)c1ccccc1 [Example 7, 3-chloro-N-(2-oxo-2-phenylethyl)benzamide] | 1.2 | 1.091
O=C(CNC(=O)c1ccc(F)cc1)c1ccc(Cl)cc1 [Example 45, N-(2-(4-chlorophenyl)-2-oxoethyl)-4-fluorobenzamide] | 0.84 | 1.476
O=C(CNC(=O)c1ccccc1CN1CCCc2ccccc21)c1ccccc1 [Example 297, 2-((3,4-dihydroquinolin-1(2H)-yl)methyl)-N-(2-oxo-2-phenylethyl)benzamide] | 1.33 | 1.231
O=C(CNC(=O)c1ccc(CN2CCN(c3ccccc3F)CC2)cc1)c1ccccc1 [Example 257, 4-((4-(2-fluorophenyl)piperazin-1-yl)methyl)-N-(2-oxo-2-phenylethyl)benzamide] | 1.36 | 1.338
CCC(=O)NCC(=O)c1ccc(Cl)cc1 [Example 54, N-(2-(4-chlorophenyl)-2-oxoethyl) propionamide] | 0.7 | 1.083
O=C(CNC(=O)c1ccccc1CN1CCN(c2ccccn2)CC1)c1ccccc1 [Example 302, N-(2-oxo-2-phenylethyl)-2-((4-(pyridin-2-yl)piperazin-1-yl)methyl)benzamide] | 1.41 | 1.175
O=C(CNC(=O)c1ccc(C(F)(F)F)cc1)c1ccc(Cl)cc1 [Example 75, N-(2-(4-chlorophenyl)-2-oxoethyl)-4-(trifluoromethyl)benzamide] | 0.71 | 1.283
CCCCN(CCO)Cc1ccc(C(=O)NCC(=O)c2ccccc2)cc1 [Example 268, 4-((butyl(2-hydroxyethyl)amino)methyl)-N-(2-oxo-2-phenylethyl)benzamide] | 1.6 | 1.22

Compound | fold induction at 1 µM (KAI1 promoter) | In vivo relative invation [1]
O=C(CNC(=O)c1ccccc1OC1CCN(C(=O)c2ccc(OC(F)(F)F)cc2)CC1)c1ccccc1 [Example 199, N-(2-oxo-2-phenylethyl)-2-((1-(4-(trifluoromethoxy)benzoyl)piperidin-4-yl)oxy)benzamide] | 0.97 | 1.105
COc1ccc(C(=O)NCC(=O)c2ccc(N3CCOCC3)cc2)cc1 [Example 140, 4-methoxy-N-(2-(4-morpholinophenyl)-2-oxoethyl)benzamide] | 1.15 | 1.553
COc1cccc(C(=O)CNC(=O)C2CCC2)c1 [Example 126, N-(2-(3-methoxyphenyl)-2-oxoethyl)cyclobutanecarboxamide] | 1.08 | 1.352
O=C(CNC(=O)c1cccc(Cl)c1Cl)c1ccc(Cl)cc1 [Example 80, 2,3-dichloro-N-(2-(4-chlorophenyl)-2-oxoethyl)benzamide] | 0.86 | 1.183
CN(C)c1ccc(C(=O)CNC(=O)c2cc(Cl)cc(Cl)c2)cc1 [Example 117, 3,5-dichloro-N-(2-(4-(dimethylamino)phenyl)-2-oxoethyl)benzamide] | 1.32 | 1.076
CCCc1ccc(NC(=O)COc2ccccc2C(=O)NCC(=O)c2ccccc2)cc1 [Example 213, 2-(2-oxo-2-((4-propylphenyl)amino)ethoxy)-N-(2-oxo-2-phenylethyl)benzamide] | 1.14 | 1.209
COc1ccccc1C(=O)N1CCC(Oc2ccccc2C(=O)NCC(=O)c2ccccc2)CC1 [Example 162, 2-((1-(2-methoxybenzoyl)piperidin-4-yl)oxy)-N-(2-oxo-2-phenylethyl)benzamide] | 0.99 | 1.043
CCCCN(CCO)Cc1cccc(C(=O)NCC(=O)c2ccccc2)c1 [Example 244, 3-((butyl (2-hydroxyethyl)amino)methyl)-N-(2-oxo-2-phenylethyl)benzamide] | 1.51 | 1.1
O=C(COc1ccccc1C(=O)NCC(=O)c1ccccc1)Nc1ccccc1 [Example 201, 2-(2-oxo-2-(phenylamino)ethoxy)-N-(2-oxo-2-phenylethyl)benzamide] | 1.46 | 0.9283
O=C(CNC(=O)c1ccccc1OC1CCN(C(=O)c2ccccc2F)CC1)c1ccccc1 [Example 153, 2-((1-(2-fluorobenzoyl)piperidin-4-yl)oxy)-N-(2-oxo-2-phenylethyl)benzamide] | 1.05 | 1.095
O=C(CNC(=O)c1ccc(F)c(F)c1)c1ccc(Cl)cc1 [Example 78, N-(2-(4-chlorophenyl)-2-oxoethyl)-3,4ifluorobenzamide] | 0.9 | 1.17
CCN(Cc1cccc(C(=O)NCC(=O)c2ccccc2)c1)c1ccccc1 [Example 239, 3-((ethyl(phenyl)amino)methyl)-N-(2-oxo-2-phenylethyl)benzamide] | 1.08 | 1.135
CC(Oc1ccccc1)C(=O)NCC(=O)c1ccc(N(C)C)cc1 (stereo not shown) [Example 89, N-(2-(4-(dimethylamino)phenyl)-2-oxoethyl)-2-phenoxypropanamide] | 1.27 | 1.074
O=C(CNC(=O)c1ccccc1C(F)(F)F)c1ccc(Cl)cc1 [Example 73, N-(2-(4-chlorophenyl)-2-oxoethyl)-2-(trifluoromethyl)benzamide] | 0.99 | 1.116
CCCCC(=O)NCC(=O)c1ccc(N(C)C)cc1 [Example 103, N-(2-(4-(dimethylamino)phenyl)-2-oxoethyl)pentanamide] | 1.7 | 1.172
CCC(=O)NCC(=O)c1cccc(OC)c1 [Example 124, N-(2-(3-methoxyphenyl)-2-oxoethyl) propionamide] | 1.04 | 1.266
Cc1[nH]c(/C=C2\C(=O)Nc3ccc(S(=O)(=O)Cc4c(Cl)cccc4Cl)cc32)c(C)c1C(=O)N1CCC[C@@H]1CN1CCCC1 [PHA, PHA-665752, reference compound] | 1.43 | –
KITENIN | – | 1.419 and 1.156 and 1.58 and 1.288 and 1.205 and 1.369
